{"source": "ChEMBL document CHEMBL3632570", "about": "“Structure-Guided Design of Novel l-Cysteine Derivatives as Potent KSP Inhibitors” (ACS Med Chem Lett, 2015)", "key": {"HCT-116 [1]": {"tested_on": "HCT-116", "assay": "Growth inhibition of human HCT116 cells after 72 hrs by MTS assay", "assay_type": "functional, cell-based", "conditions": "HCT-116, 72 h"}, "HCT-116 [2]": {"tested_on": "HCT-116", "assay": "Antitumor activity against human HCT116 cells xenografted in athymic nude BALB/cAJcL mouse assessed as inhibition of tumor growth at 25 mg/kg, iv administered on days 1,3,5,8,10 and 12 measured on day 15", "assay_type": "functional"}, "[3]": {"target": "T1, Kinesin-like protein KIF23 (Homo sapiens) (UniProt Q02241)", "T1 sequence (whole entry)": "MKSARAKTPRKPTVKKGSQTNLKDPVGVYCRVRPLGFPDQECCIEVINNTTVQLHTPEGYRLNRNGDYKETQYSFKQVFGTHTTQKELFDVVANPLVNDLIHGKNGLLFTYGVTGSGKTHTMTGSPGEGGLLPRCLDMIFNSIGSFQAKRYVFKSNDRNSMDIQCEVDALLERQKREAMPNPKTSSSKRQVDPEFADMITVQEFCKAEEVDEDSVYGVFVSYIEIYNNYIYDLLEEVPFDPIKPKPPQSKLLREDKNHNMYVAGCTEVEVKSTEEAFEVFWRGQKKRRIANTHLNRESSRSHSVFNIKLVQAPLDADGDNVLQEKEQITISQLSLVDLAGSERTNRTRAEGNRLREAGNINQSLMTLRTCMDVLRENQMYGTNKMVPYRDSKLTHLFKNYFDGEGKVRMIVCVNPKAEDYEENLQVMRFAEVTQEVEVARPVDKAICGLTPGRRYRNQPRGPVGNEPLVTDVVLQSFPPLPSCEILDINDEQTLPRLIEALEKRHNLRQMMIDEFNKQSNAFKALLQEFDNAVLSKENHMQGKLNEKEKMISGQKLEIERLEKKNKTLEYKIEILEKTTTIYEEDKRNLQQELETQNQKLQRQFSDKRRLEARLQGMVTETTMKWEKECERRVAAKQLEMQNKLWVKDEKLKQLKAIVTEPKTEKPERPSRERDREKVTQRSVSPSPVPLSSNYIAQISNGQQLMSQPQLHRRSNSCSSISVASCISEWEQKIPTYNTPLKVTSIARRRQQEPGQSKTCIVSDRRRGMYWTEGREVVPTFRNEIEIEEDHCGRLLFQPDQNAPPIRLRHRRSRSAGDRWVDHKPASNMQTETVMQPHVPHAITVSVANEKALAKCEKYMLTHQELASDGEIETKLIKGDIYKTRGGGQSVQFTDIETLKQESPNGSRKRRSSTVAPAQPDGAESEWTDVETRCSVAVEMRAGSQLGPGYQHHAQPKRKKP", "assay": "Inhibition of microtubule-stimulated MKLP1 motor domain (1 to 446) (unknown origin) ATPase activity at 6.3 uM"}, "[4]": {"target": "T2, Chromosome-associated kinesin KIF4A (Homo sapiens) (UniProt O95239)", "T2 sequence (whole entry)": "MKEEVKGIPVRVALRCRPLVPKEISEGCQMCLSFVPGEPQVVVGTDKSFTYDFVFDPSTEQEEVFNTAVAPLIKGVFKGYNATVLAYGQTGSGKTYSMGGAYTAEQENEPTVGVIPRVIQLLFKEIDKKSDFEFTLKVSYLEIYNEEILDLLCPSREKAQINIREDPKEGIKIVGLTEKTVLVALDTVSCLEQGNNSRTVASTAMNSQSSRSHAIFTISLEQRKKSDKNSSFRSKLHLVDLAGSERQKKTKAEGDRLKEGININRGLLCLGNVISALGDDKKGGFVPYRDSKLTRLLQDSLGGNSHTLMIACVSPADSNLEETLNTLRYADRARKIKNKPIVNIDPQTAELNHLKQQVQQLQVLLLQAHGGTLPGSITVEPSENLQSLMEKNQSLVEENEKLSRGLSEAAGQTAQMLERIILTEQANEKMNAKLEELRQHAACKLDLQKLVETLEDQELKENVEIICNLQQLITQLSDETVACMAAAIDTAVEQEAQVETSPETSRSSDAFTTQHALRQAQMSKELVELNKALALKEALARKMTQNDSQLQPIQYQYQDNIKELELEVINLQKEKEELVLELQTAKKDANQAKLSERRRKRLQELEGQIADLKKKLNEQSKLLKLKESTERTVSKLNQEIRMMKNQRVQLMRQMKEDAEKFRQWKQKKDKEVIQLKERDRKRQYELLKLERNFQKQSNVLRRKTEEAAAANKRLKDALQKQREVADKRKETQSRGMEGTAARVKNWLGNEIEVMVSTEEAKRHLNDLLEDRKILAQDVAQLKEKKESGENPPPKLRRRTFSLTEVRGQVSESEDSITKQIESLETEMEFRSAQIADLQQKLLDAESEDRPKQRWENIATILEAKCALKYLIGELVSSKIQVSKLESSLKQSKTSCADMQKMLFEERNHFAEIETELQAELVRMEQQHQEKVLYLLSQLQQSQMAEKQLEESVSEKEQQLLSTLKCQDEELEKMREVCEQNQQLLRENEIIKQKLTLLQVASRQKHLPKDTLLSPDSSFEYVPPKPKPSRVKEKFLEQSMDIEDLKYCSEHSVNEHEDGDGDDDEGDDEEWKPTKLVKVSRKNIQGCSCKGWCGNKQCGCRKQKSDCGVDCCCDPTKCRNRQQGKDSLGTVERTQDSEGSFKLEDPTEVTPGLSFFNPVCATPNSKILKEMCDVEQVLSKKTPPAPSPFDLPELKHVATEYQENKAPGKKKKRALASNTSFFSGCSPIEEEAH", "assay": "Inhibition of microtubule-stimulated KIF4A motor domain (1 to 346) (unknown origin) ATPase activity at 6.3 uM"}}, "note": "pIC50: −log10 of the molar value. Active and inactive are the calls of the source. The rule behind the calls is not given here.", "data": [{"smiles": "COc1ccc(C2(SC[C@H](N)C(=O)O)c3ccccc3CCc3ccccc32)cc1", "values": [{"measurement": "pIC50", "setting": "HCT-116 [1]", "value": 7.55}, {"measurement": "T/C", "setting": "HCT-116 [2]", "value": 26, "unit": "%"}, {"measurement": "inhibition", "setting": "[3]", "value": "inactive"}, {"measurement": "inhibition", "setting": "[4]", "value": "inactive"}]}, {"smiles": "N[C@@H](CSC1(c2ccc(C(F)(F)F)cc2)c2ccccc2CCc2ccccc21)C(=O)O", "values": [{"measurement": "pIC50", "setting": "HCT-116 [1]", "value": 7.96}, {"measurement": "T/C", "setting": "HCT-116 [2]", "value": 21, "unit": "%"}, {"measurement": "inhibition", "setting": "[3]", "value": "inactive"}, {"measurement": "inhibition", "setting": "[4]", "value": "inactive"}]}]}
